The source of these data is patent publication US20110229521A1, “NUTRITIONAL SUPPORT OF THE IMMUNE SYSTEM DURING ANTI-CANCER TREATMENT” (priority 2008, published 2011).

The test system of one data set is γδ T cells. The note with it: acid hydrolysed, diluted in media; peripheral blood mononuclear cells; cited from earlier work.
Data set [1] can be described thus: Body weight, haematological evaluation and flow cytometry of tumor-bearing mice on supplemented diets with chemotherapy (Example 2). In kind it is in vivo, C57BL/6 (H-2b) mice. The note with it: for Global lymphocyte population: following chemotherapy. As for the experimental part:
(§1) Mice. […] The animals were distributed into 7 different group diets. There was a control group that received the diet AIN 93 for adult rodents (maintenance). […] Control animals without chemotherapeutic treatment were run in parallel for all tested diets. Body weight was assessed every two days. Blood samples were obtained at day 2, 4 and 10 after the chemo-treatment and at sacrifice (14 or 28 days). An autopsy was performed and tumor mass was assessed.
Haematological evaluation.
Flow cytometric analysis.
A general note: Flow cytometry measures light scatter and fluorescence of single cells or particles in a stream.

The next data set has as its system MCA-OVA tumor cells. As to the kind of experiment: Tumor growth evaluation by caliper, supplemented diets with or without chemotherapy (Example 2). In kind it is in vivo, C57BL/6 (H-2b) mice. The protocol:
as §1
Cancer Cell Lines. Methylcholanthrene (MCA) induced sarcoma cell line expressing the exogenous antigen ovalbumin (OVA) was grown in DMEM or RPMI 1640 supplemented with 2 mM L-glutamine, 10 mM HEPES, 20 μM 2-mercaptoethanol, 150 U/mL streptomycin, 200 U/mL penicillin, and 10% heat-inactivated FBS. 1×10 ^6 tumor cells were injected in the flank of the mice 6 days prior to the chemotherapy.
Tumor growth evaluation. Growth of tumors was monitored every 2 d by using calipers, and tumor volume was calculated by using the formula length×width×width×0.52 mm^3.

The test system of data set [2] is Methylcholanthrene (MCA) induced sarcoma cell line expressing the exogenous antigen for ovalbumin (OVA). Description: Tumor growth evaluation by caliper after chemotherapy (Example 1). In kind it is in vivo, C57BL/6 (H-2b) mice. As for the experimental part: Cancer Cell Lines. Methylcholanthrene (MCA) induced sarcoma cell line expressing the exogenous antigen for ovalbumin (OVA) were grown in DMEM or RPMI 1640 supplemented with 2 mM L-glutamine, 10 mM HEPES, 20 μM 2-mercaptoethanol, 150 U/mL streptomycin, 200 U/mL penicillin, and 10% heat-inactivated FBS. 1×10^6 tumor cells were injected in the flank of the mice 6 days prior to the chemotherapy.
Growth of tumors was monitored every 2 d by using calipers, and tumor volume was calculated by using the formula length×width×width×0.52 mm^3.

Data set [3] is described as follows: Body weight, haematological evaluation and flow cytometry of tumor-bearing mice after chemotherapy (Example 1).
Procedure: Mice. Inbred eight-week-old C57BL/6 (H-2b) mice were used in the experiments. Mice were inoculated subcutaneously (s.c.) on the left flank with 1×10 ^6 tumor cells, and tumor growth was monitored every 2 days by caliper measurement. 6 days after the tumor inoculation the animals were treated either with oxaliplatin or doxorubicin. Tumor growth was monitored every two days after the chemotherapeutic treatment and they were sacrificed after two weeks of tumor implantation. Some experiments were carried out until 28 days post-chemo to better assess tumor growth.
Body weight was assessed every two days until sacrifice.
Blood samples were obtained at day 2 and 4 after the chemo-treatment, at day 10 and at sacrifice (14 or 28 days). An autopsy was performed and tumoral mass was assessed.
Haematological evaluation. Red blood cell enumeration, hemoglobin and hematocrit were measured at 2, 4, 10, 14 and 28 days.
White blood cell counts and differential leukocyte formulation were examined at the same time points. Blood samples were used in addition to determine immune cell populations.
Flow cytometric analysis. Cell subset analysis of the CD11c^+, CD11b^+Gr-1^+ and CD11b^+Gr-1^−, CD14^+, CD19^+, CD16^+, CD56^+, CD3^+, CD8^+, CD4^+ was performed. The battery of antibodies used permitted the evaluation of: B and T cell subsets NK, NKT cells, macrophages, dendritic cells, granulocytes.

`CCNC(=O)CC[C@H](N)C(=O)O` [L-theanine]: the “expansion of γδ T cells” value in the data set with γδ T cells is listed as 15 fold.

Regarding `NC(=O)CC[C@H](N)C(=O)O` [glutamine], the Global lymphocyte population result in data set [1] (supplemented diet) is “less depressed following chemotherapy”.

Consider `N=C(N)NCCC[C@H](N)C(=O)O` [arginine, L-arginine], for which the tumor size entry in the data set with MCA-OVA tumor cells (combination with the chemotherapy treatment versus chemotherapy alone, FIG. 4) was “further reduced the tumor size”. Besides, in the data set with MCA-OVA tumor cells (supplemented diet compared to other groups), the “progression of the implanted tumor” value is given as “delayed progression”. In data set [1] (after chemotherapy, supplemented diet), the “loss of CD3+ cells” value is given as “partially modulated”. In data set [1] (second phase (tumor-induced toxicity)), the “immune cell population / concentration” value is on record as “increase immune cell concentration”. For the same molecule, the “fall of erythrocytes after chemotherapy” value in data set [1] (supplemented diet, days 6 to 10 post-chemo, FIG. 3) was “prevented the marked fall of erythrocytes”.

For `NC(=O)NCCC[C@H](N)C(=O)O` [citrulline, L-citrulline], in data set [1] (supplemented diet), the Global lymphocyte population result is “less depressed following chemotherapy”.

For `O=C1[O][Pt]2([NH][C@@H]3CCCC[C@H]3[NH]2)[O]C1=O` [oxaliplatin], the “tumor growth rate versus control (no chemotherapy)” value is “slower rate than the control” in data set [2] (treatment group oxa-10, FIG. 2, divergence at day 14) and “slower rate than the control” in data set [2] (treatment group oxa-12.5, FIG. 2, divergence at day 14). In addition, the “white blood cell counts” value in data set [3] is listed as “higher that the baseline counts”.
